Source: patent publication US5736565A, “Therapeutic compounds suitable for the treatment of diseases connected with glutathione deficiency, process for their preparation, and pharmaceutical compositions containing same” (Prospa B.V., priority 1992, dated 1998)
Where “and” joins values, the source holds several entries; their conditions need not be identical. Equal entries are not always repeated.

How the values were obtained:
hepatic GSH [1] = test: Test No. 1: protection from ethanol acute administration, hepatic GSH content; assay type: in vivo, male albino Wistar rats; design: GSH Content: unit not given beside the values; details: liver; ethanol 3 g/kg i.p.; test substance 50 mg/kg
Experimental: Protection from ethanol acute administration […] Male albino Wistar rats weighing between 180 and 230 g were used. All animals were fasted for 24 hours prior to administration of isotonic solution, ethanol or ethanol combined with the test substances. As concerns the test substances, rats were intraperitoneally (i.p.) injected with compound of formula I (R=CH3) at doses of 10, 30, and 50 mg/kg and, for purposes of comparison, with the single constituents of compound (I) (R=CH3), […] (O-PRO) and L-cysteine (CIS), both at a 50 mg/kg dose. One hour after administration of the test substance, ethanol was injected i.p. at the dose of 3 g/kg. Thirty minutes later, the animals were sacrificed by decapitation and their liver was excised. […] Orwar et al., J. Chromatrogr., 556, 39-55 (1991).

hepatic GSH [2] = test: Test No. 4: dichloropropane (DCP) intoxication in vivo, hepatic GSH; design: species or system rat; details: for normalization of hepatic GSH (in words): DCP-treated rats
Experimental: (§1) A test was carried out in vivo on four groups of four rats each, using, as a toxic substance, dichloropropane (DCP), the main constituent of several solvents. DCP is noxious both by ingestion and inhalation and has a notable toxicity to the liver, mediated by an almost total depletion of thiol groups, including those of GSH.
(§2) The experimental model involves the study of the effect of DCP toxicity in the rat, in respect of glutathione (GSH) concentration in the main target tissue: the liver.
(§3) Tests were carried out on four groups of rats. The first group of animals was administered 2 ml DCP/kg dissolved in oil (40% v/v) per os. Twenty-four hours after DCP administration, blood samples were taken for SGPT measurement, while the animals were sacrificed; small portions of liver were then excised and immediately deproteinized by homogenization in 6% PCA. The chromatographic analyses of GSH and GSSG (oxidized glutathione) were performed.
(§4) The second group of animals was treated with the test drug (600 mg/kg i.p.) two hours after DCP administration. The third and fourth groups were treated with N-acetyl-cysteine (NAC) (250 mg/kg i.p.) and, respectively, with glutathione (Tationil^R) (600 mg/kg i.p.).
An evaluation of the protective action of the test drug in respect of glutathione involvement in hepatic protection mechanisms was thus possible.

DCP toxicity in the rat = test: Test No. 4: dichloropropane (DCP) intoxication in vivo, death rate and signs; design: key to animal 4, symbol in GSH table: --: dead; details: DCP + 250 mg/kg i.p.
Experimental: as §1, §2, §3, §4

SMILES: N[C@@H](CS)C(=O)O [CIS, L-cysteine, reference compound]
- GSH Content (hepatic GSH [1]): 2.7 ± 0.3

SMILES: N[C@@H](CCC(=O)N[C@@H](CS)C(=O)NCC(=O)O)C(=O)O [GSH, glutathione]
- normalization of hepatic GSH (in words) (hepatic GSH [2]): could not normalize the values of hepatic GSH
- GSH Content (hepatic GSH [1]): 3.5 ± 0.6

SMILES: CC(=O)N[C@@H](CS)C(=O)O [NAC, N-acetyl-L-cysteine, reference compound]
- normalization of hepatic GSH (in words) (hepatic GSH [2]): could not normalize the values of hepatic GSH
- GSH, average values (hepatic GSH [2]; liver, DCP 2 ml/kg per os + 250 mg/kg i.p.): 2.4 nmol/mg protein
- GSH, individual animals (hepatic GSH [2]; liver, DCP 2 ml/kg per os + 250 mg/kg i.p., animals 1-3, 250 mg/kg): 2.0 nmol/mg protein and 2.9 nmol/mg protein and 2.3 nmol/mg protein
- animal 4, symbol in GSH table (DCP toxicity in the rat): --

SMILES: O=C1CC[C@@H](C(=O)O)N1 [O-PRO, 5-oxy-L-proline, reference compound]
- GSH Content (hepatic GSH [1]): 3.4 ± 0.3
